Results from patent publication US20260174716A1, “CRYSTAL FORM OF ALKYL CARBOXYLIC ACID COMPOUND AND USE THEREOF” (CONSUN PHARMACEUTICAL (INNER MONGOLIA) CO. LTD, priority 2022, published 2026).
Each block holds one compound with its values, some of them ahead of it.

What was measured:
[1] = Solid stability test (XRPD detection of crystal form); format: physicochemical
Text: For samples placed under high temperature and high humidity conditions, the vial was sealed with aluminum foil punched with small holes to ensure that the samples were in full contact with the ambient air; for samples placed under strong light conditions, the vial was sealed with a threaded cap. The samples placed under different conditions were sampled and detected (XRPD) on day 5, day 10, and month 1, and the results were compared with the initial results on day 0.

sGC = molecular target: T1, sGC (Homo sapiens, UniProt Q02153); test: cGMP expression test based on LNCap cells (HTRF, with ODQ); format: cell-based
T1 construct: Minimum effective concentration required to stimulate cGMP production in LNCap cells; endogenous in cells; host or cells: LNCaP cells (no transfection described)
T1 sequence (Q02153 1-619): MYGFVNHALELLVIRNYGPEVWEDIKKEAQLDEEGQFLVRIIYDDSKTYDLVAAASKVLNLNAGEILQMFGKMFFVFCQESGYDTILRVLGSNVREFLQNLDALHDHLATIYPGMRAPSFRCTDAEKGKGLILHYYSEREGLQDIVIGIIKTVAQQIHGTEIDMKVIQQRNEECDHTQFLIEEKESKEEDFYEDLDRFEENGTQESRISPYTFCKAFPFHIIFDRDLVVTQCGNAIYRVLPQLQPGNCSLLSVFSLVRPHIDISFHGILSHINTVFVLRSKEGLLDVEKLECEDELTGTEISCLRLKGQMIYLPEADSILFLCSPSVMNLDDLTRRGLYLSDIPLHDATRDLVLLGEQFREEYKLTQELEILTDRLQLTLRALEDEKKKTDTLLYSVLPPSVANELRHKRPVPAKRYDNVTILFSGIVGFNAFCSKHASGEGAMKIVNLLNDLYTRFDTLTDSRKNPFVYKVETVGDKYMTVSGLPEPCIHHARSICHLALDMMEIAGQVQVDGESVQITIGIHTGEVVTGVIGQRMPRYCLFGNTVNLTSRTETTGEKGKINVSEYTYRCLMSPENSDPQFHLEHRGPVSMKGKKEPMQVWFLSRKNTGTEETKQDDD
T1 sequence (Q02108 1-690 partner): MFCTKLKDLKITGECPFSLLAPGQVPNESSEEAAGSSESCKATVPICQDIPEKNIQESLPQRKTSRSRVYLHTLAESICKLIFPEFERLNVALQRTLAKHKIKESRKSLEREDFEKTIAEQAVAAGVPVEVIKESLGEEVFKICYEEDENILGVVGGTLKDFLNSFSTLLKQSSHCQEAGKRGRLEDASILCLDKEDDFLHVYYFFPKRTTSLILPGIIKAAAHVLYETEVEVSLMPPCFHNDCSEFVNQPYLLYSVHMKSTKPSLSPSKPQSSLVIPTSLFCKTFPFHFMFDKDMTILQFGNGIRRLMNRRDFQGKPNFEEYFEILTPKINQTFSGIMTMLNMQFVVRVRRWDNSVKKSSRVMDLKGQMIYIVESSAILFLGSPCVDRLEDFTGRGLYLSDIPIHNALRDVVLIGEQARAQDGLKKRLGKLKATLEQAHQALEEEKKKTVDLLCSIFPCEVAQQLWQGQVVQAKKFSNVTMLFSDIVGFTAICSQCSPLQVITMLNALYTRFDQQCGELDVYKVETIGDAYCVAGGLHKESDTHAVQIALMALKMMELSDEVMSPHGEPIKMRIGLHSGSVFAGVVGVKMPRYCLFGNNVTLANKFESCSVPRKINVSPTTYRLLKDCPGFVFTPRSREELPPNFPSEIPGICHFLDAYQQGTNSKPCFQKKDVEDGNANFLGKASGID
Protocol: I. CGMP Expression Test Based on InCap Cells
10 g of BSA was dissolved in 100 mL of double-distilled water (ddH2O) to obtain 10% BSA.
1 mg of ODQ powder was weighed and dissolved in 534 μL of DMSO to prepare 10 mM ODQ solution. The solution was aliquoted and stored in a −20° C. refrigerator.
• a) 50 μL of cGMP-D2 (D2-labeled cyclic guanosine monophosphate) was added to 1 mL of lysis buffer and mixed thoroughly. • b) 50 μL of anti-cGMP cryptate (Eu^3+ cryptate-labeled anti-cyclic guanosine monophosphate antibody) was added to 1 mL of lysis buffer and mixed thoroughly.
• (1) The compound was diluted to a concentration of 10 mM using DMSO. • (2) A serial dilution of the compound was performed, resulting in 10 different concentration levels of each compound. […]
• (1) cGMP-D2 was transferred to a 384-well plate at 5 μL per well. […] Centrifugation was performed at 1500 rpm for 1 minute. • (2) Incubation was carried out at room temperature for 1 hour. • (3) The plates were read using envision at 665/615 wavelengths.
• (1) cGMP standard curve: A standard curve was generated using GraphPad Prism, based on the ratio of cGMP concentration to the 665/615 wavelength values. • (2) Conversion of HTRF (homogeneous time-resolved fluorescence) ratio (665/615) to cGMP concentration: In GraphPad Prism, the HTRF ratio (665/615) was copied to the ratio column of the cGMP standard curve. […]

[2] = In vitro hepatocyte metabolic stability, rat; format: in vitro ADME; conditions: hepatocytes (cryopreserved, suspension), 0.5×10^6 cells/mL
Protocol: (§1) • 1. Experimental objective: The aim of the study was to assess the stability of the compounds in hepatocytes of different species. • 2. Experimental steps:
(§2) A variety of 96-well precipitation plates were prepared and labeled as T0, T15, T30, T60, T90, T0-MC, T90-MC, and blank matrix, respectively. Revival medium and incubation medium were taken in advance and pre-warmed in a 37° C. water bath. Hepatocytes of different species, stored in a liquid nitrogen tank, were taken and immediately immersed in a 37° C. water bath for approximately 90 seconds. Once partially thawed, cells were transferred to centrifuge tubes containing 40 mL of revival medium, and gently inverted to resuspend the cells in the revival medium. At room temperature, cells were centrifuged at 100×g for 5 minutes. The supernatant was discarded, and the hepatocytes were resuspended in an appropriate volume of incubation medium. Viability was calculated using trypan blue staining. 198 μL of hepatocyte suspension (0.51×10^6 cells/mL) was added to pre-warmed incubation plates. For the control group, 198 μL of hepatocyte-free incubation medium was added to T0-MC and […] plates. All plates were pre-incubated for 10 minutes in a 37° C. incubator. […] All samples were mixed well and analyzed using LC/MS/MS methods.

[3] = In vitro hepatocyte metabolic stability, human; format: in vitro ADME; conditions: hepatocytes (cryopreserved, suspension), 0.5×10^6 cells/mL
Protocol: as §1, §2

[4] = In vitro hepatocyte metabolic stability, mouse; format: in vitro ADME; conditions: hepatocytes (cryopreserved, suspension), 0.5×10^6 cells/mL
Protocol: as §1, §2

Crystal form ([1]; 40° C./75% RH (open), Day 5): Crystal form A | Crystal form ([1]; 40° C./75% RH (open), Day 10): Crystal form A | Crystal form ([1]; 40° C./75% RH (open), Month 1): Crystal form A | Crystal form ([1]; 60° C./75% RH (open), Day 5): Crystal form A | Crystal form ([1]; 60° C./75% RH (open), Day 10): Crystal form A | Crystal form ([1]; 60° C./75% RH (open), Month 1): Crystal form A | Crystal form ([1]; Day 0 (initial)): Crystal form A | Crystal form ([1]; High humidity (25° C./relative humidity: 92.5%, open), Day 5): Crystal form A | Crystal form ([1]; High humidity (25° C./relative humidity: 92.5%, open), Day 10): Crystal form A | Crystal form ([1]; High humidity (25° C./relative humidity: 92.5%, open), Month 1): Crystal form A | Crystal form ([1]; High temperature (60° C., open), Day 5): Crystal form A | Crystal form ([1]; High temperature (60° C., open), Day 10): Crystal form A | Crystal form ([1]; High temperature (60° C., open), Month 1): Crystal form A | Crystal form ([1]; Strong light (5000 lx, sealed), Day 5): Crystal form A | Crystal form ([1]; Strong light (5000 lx, sealed), Day 10): Crystal form A | Crystal form ([1]; Strong light (5000 lx, sealed), Month 1): Crystal form A | EC50 (sGC; cGMP production in LNCap cells): 21.2 nM | MEC (sGC; minimum effective concentration to stimulate cGMP production in LNCap cells (greater than three times the baseline value)): 6.93 nM
SMILES: COC12CC([C@H](CC(=O)O)c3ccc(Cl)c(NC(=O)[C@H](c4ccc(Cl)cc4)[C@@H](C)C(F)(F)F)c3)(C1)C2

half-life at 1 μM [2]: 1.3 h | CLint scaled at 1 μM ([2]; read-out: CLint (liver)): 82.9 mL/min/kg | half-life at 1 μM [3]: 2.58 h | CLint scaled at 1 μM ([3]; read-out: CLint (liver)): 24.9 mL/min/kg | half-life at 1 μM [4]: 1.42 h | CLint scaled at 1 μM ([4]; read-out: CLint (liver)): 193 mL/min/kg
SMILES: COC12CC([C@H](CC(=O)O)c3ccc(Cl)c(NC(=O)[C@H](c4ccc(Cl)cc4)[C@@H](C)C(F)(F)F)c3)(C1)C2 [Compound of formula (I)]
